Test results taken from ChEMBL document CHEMBL1201862, “PubChem BioAssay data set” (2004).
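Step 1: Grow cells in 96-well plates. Step 2: Expose to compound for 48 hours at 5 concentrations. Step 3: Interpolate endpoints linearly; if unreached, use highest concentration. GI50 = concentration required for 50% inhibition of growth.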 Active and inactive are the calls of the source. Rule as the data show it: active = GI50 up to about 1.1 µM and inactive = higher. Square brackets hold non-standard residues; d marks the D form. Peptide text beside a SMILES is read from it. * marks the point of attachment. X26 = COC1=CC(=O)N(C(=O)[C@@H](O*)C(C)C)[C@H]1Cc1ccccc1; Bn2Val = CC(C)[C@@H](C(=O)*)N(Cc1ccccc1)Cc1ccccc1; NMeV = CN[C@H](C(=O)O)C(C)C; dNMeA = CN[C@H](C)C(=O)O

Experiments:
Assay in all cases: NCI tumour cell line growth inhibition, 48 h
ACHN = test system: ACHN
SF-539 = test system: SF-539
SN12C = test system: SN12C
SF-268 = test system: SF-268
MCF7 = test system: MCF7
OVCAR-3 = test system: OVCAR-3
SF-295 = test system: SF-295
A498 = test system: A498
SK-OV-3 = test system: SK-OV-3
SK-MEL-5 = test system: SK-MEL-5
COLO 205 = test system: COLO 205
HOP-62 = test system: HOP-62
MOLT-4 = test system: MOLT-4
A549 = test system: A549
HCT-116 = test system: HCT-116
NCI-H226 = test system: NCI-H226
M14 = test system: M14
PC-3 = test system: PC-3
IGROV-1 = test system: IGROV-1

| SMILES | GI50 (ACHN) | GI50 (SF-539) | GI50 (SN12C) | GI50 (SF-268) | GI50 (MCF7) | GI50 (OVCAR-3) | GI50 (SF-295) | GI50 (A498) | GI50 (SK-OV-3) | GI50 (SK-MEL-5) | GI50 (COLO 205) | GI50 (HOP-62) | GI50 (MOLT-4) | GI50 (A549) | GI50 (HCT-116) | GI50 (NCI-H226) | GI50 (M14) | GI50 (PC-3) | GI50 (IGROV-1) |
| --- | --- | --- | --- | --- | --- | --- | --- | --- | --- | --- | --- | --- | --- | --- | --- | --- | --- | --- | --- |
| CC(C)(CN)CN | > 100 µM (inactive) | > 100 µM (inactive) | > 100 µM (inactive) | > 100 µM (inactive) | > 100 µM (inactive) | > 100 µM (inactive) | > 100 µM (inactive) | > 100 µM (inactive) | > 100 µM (inactive) | > 100 µM (inactive) | > 100 µM (inactive) | > 100 µM (inactive) | > 100 µM (inactive) | > 100 µM (inactive) | > 100 µM (inactive) | > 100 µM (inactive) | > 100 µM (inactive) | > 100 µM (inactive) | > 100 µM (inactive) |
| COC1=CC(=O)N(C(=O)[C@@H](OC(=O)[C@@H](C)N(C)C(=O)[C@@H]2CCCN2C(=O)[C@H](C(C)C)N(C)C(=O)[C@@H](NC(=O)[C@H](C(C)C)N(Cc2ccccc2)Cc2ccccc2)C(C)C)C(C)C)[C@H]1Cc1ccccc1 (Bn2Val-V[NMeV]P[dNMeA]-X26) | > 100 µM (inactive) | > 37.2 µM (inactive) | > 100 µM (inactive) | > 100 µM (inactive) | 8.65 µM (inactive) | > 100 µM (inactive) | > 71.3 µM (inactive) | 38.2 µM (inactive) | > 100 µM (inactive) | 23.9 µM (inactive) | > 100 µM (inactive) | > 57.3 µM (inactive) | – | > 100 µM (inactive) | 4.32 µM (inactive) | > 26.3 µM (inactive) | 68.1 µM (inactive) | 6.3 µM (inactive) | > 100 µM (inactive) |
| COc1ccc(Br)c(/C=N\c2cccc3cc(OC)c(OC)cc23)c1 | 25.5 µM (inactive) | 2.64 µM (inactive) | 12.8 µM (inactive) | 7 µM (inactive) | 2.33 µM (inactive) | 9.12 µM (inactive) | 12.8 µM (inactive) | > 78.5 µM (inactive) | 55.1 µM (inactive) | 17.5 µM (inactive) | 79.3 µM (inactive) | 9.64 µM (inactive) | 4.81 µM (inactive) | > 91.2 µM (inactive) | 4.35 µM (inactive) | 39 µM (inactive) | 3.84 µM (inactive) | 11.1 µM (inactive) | 25.8 µM (inactive) |
| CN(C)CCCNCc1cccc2ccccc12 | > 100 µM (inactive) | > 100 µM (inactive) | > 100 µM (inactive) | > 100 µM (inactive) | > 100 µM (inactive) | > 100 µM (inactive) | > 100 µM (inactive) | > 100 µM (inactive) | > 100 µM (inactive) | > 100 µM (inactive) | > 100 µM (inactive) | > 100 µM (inactive) | > 100 µM (inactive) | > 100 µM (inactive) | > 100 µM (inactive) | > 100 µM (inactive) | 66.5 µM (inactive) | > 100 µM (inactive) | > 100 µM (inactive) |
| COc1cccc(C2c3cc4c(cc3OC(NNc3ccccc3)C2C)OCO4)c1OC (centres undefined) | 1.65 µM (inactive) | 4.14 µM (inactive) | 9.84 µM (inactive) | 23.1 µM (inactive) | 4.73 µM (inactive) | 4.4 µM (inactive) | 0.678 µM (active) | 14.9 µM (inactive) | 49.1 µM (inactive) | 14 µM (inactive) | 3.77 µM (inactive) | 3.64 µM (inactive) | 2.55 µM (inactive) | 3.58 µM (inactive) | 3.78 µM (inactive) | 5.06 µM (inactive) | 5.06 µM (inactive) | 1.76 µM (inactive) | 4.6 µM (inactive) |
| CC1(C)[C@@H]2C[C@H]1c1cnc(-c3ccccn3)cc1[C@H]2C(O)[C@@H]1c2cc(-c3ccccn3)ncc2[C@H]2C[C@@H]1C2(C)C (some centres undefined) | 0.113 µM (active) | 0.214 µM (active) | 0.0547 µM (active) | 0.126 µM (active) | 0.0796 µM (active) | 0.0281 µM (active) | 0.0721 µM (active) | 0.491 µM (active) | 0.0867 µM (active) | 0.0461 µM (active) | 0.161 µM (active) | 0.073 µM (active) | 0.0285 µM (active) | 0.154 µM (active) | 0.0374 µM (active) | < 0.0504 µM (active) | 0.082 µM (active) | 0.332 µM (active) | 0.043 µM (active) |
| N#Cc1c(-c2ccc(Cl)cc2)cc(-c2ccc(Nc3ccnc4cc(C(F)(F)F)ccc34)cc2)[nH]c1=O | > 100 µM (inactive) | 6.65 µM (inactive) | 59.2 µM (inactive) | > 66.4 µM (inactive) | 4.79 µM (inactive) | 8.26 µM (inactive) | 36.1 µM (inactive) | > 51.8 µM (inactive) | 28.1 µM (inactive) | 19.1 µM (inactive) | 21 µM (inactive) | 23.6 µM (inactive) | 4.05 µM (inactive) | > 100 µM (inactive) | 4.76 µM (inactive) | > 92.3 µM (inactive) | 4.31 µM (inactive) | 69.2 µM (inactive) | > 54.3 µM (inactive) |
| O=[N+]([O-])c1cc(Cl)ccc1S(=O)(=O)c1cc(Cl)cc2c1NCCC2 | 40.9 µM (inactive) | > 100 µM (inactive) | > 100 µM (inactive) | 82.4 µM (inactive) | 37.8 µM (inactive) | 62.7 µM (inactive) | 36.7 µM (inactive) | > 100 µM (inactive) | > 100 µM (inactive) | 21.3 µM (inactive) | 99.8 µM (inactive) | 69.2 µM (inactive) | 27.6 µM (inactive) | 52 µM (inactive) | 63.1 µM (inactive) | 39.3 µM (inactive) | 53 µM (inactive) | 69.8 µM (inactive) | 29.1 µM (inactive) |
| CC(=O)O[C@@H]1O[Si](C(C)(C)C)(C(C)(C)C)[C@H](C)[C@H]1C | > 100 µM (inactive) | > 100 µM (inactive) | > 100 µM (inactive) | – | 19.1 µM (inactive) | 24 µM (inactive) | 90.8 µM (inactive) | > 100 µM (inactive) | > 100 µM (inactive) | 26.1 µM (inactive) | > 100 µM (inactive) | > 100 µM (inactive) | 20.8 µM (inactive) | 41 µM (inactive) | 29.9 µM (inactive) | > 100 µM (inactive) | 38.6 µM (inactive) | 33 µM (inactive) | 21.1 µM (inactive) |
| COc1ccc(\N=C/C=C/C(=C/COC(C)=O)OC(C)=O)cc1 | 17.3 µM (inactive) | 35.9 µM (inactive) | 32.7 µM (inactive) | 31 µM (inactive) | 21.7 µM (inactive) | 20.7 µM (inactive) | 58.5 µM (inactive) | 32.3 µM (inactive) | 91.2 µM (inactive) | 29 µM (inactive) | 25.4 µM (inactive) | 51.4 µM (inactive) | 68.1 µM (inactive) | 90.6 µM (inactive) | 5.53 µM (inactive) | > 100 µM (inactive) | 32.7 µM (inactive) | 36.4 µM (inactive) | 21.1 µM (inactive) |
| COc1cccc(N2CCc3c(C)c(C#N)c4nc5ccccc5n4c32)c1 | > 100 µM (inactive) | 45.7 µM (inactive) | > 100 µM (inactive) | 43.7 µM (inactive) | > 100 µM (inactive) | > 100 µM (inactive) | > 100 µM (inactive) | > 100 µM (inactive) | 48.1 µM (inactive) | > 100 µM (inactive) | > 100 µM (inactive) | > 100 µM (inactive) | – | > 100 µM (inactive) | > 100 µM (inactive) | > 100 µM (inactive) | > 100 µM (inactive) | > 100 µM (inactive) | > 100 µM (inactive) |
| COc1cc(Br)c(OC)c2c(OC)cc(C)cc12 | > 100 µM (inactive) | > 100 µM (inactive) | > 100 µM (inactive) | > 100 µM (inactive) | > 100 µM (inactive) | > 100 µM (inactive) | > 100 µM (inactive) | > 100 µM (inactive) | > 100 µM (inactive) | – | > 100 µM (inactive) | > 100 µM (inactive) | 20 µM (inactive) | – | > 100 µM (inactive) | > 100 µM (inactive) | 64.7 µM (inactive) | 44.6 µM (inactive) | > 100 µM (inactive) |
| CCCNc1c(Cl)cc(Cl)c2[nH]c3ccccc3c(=O)c12 | 24 µM (inactive) | 32.4 µM (inactive) | 95.9 µM (inactive) | – | 28.4 µM (inactive) | 48.2 µM (inactive) | 34.8 µM (inactive) | 29.7 µM (inactive) | 75.9 µM (inactive) | 32.7 µM (inactive) | 42 µM (inactive) | 56.1 µM (inactive) | 32.5 µM (inactive) | 35.1 µM (inactive) | 43.6 µM (inactive) | 38.2 µM (inactive) | 55.7 µM (inactive) | 37.1 µM (inactive) | 24.5 µM (inactive) |
| NNC(=O)CC(=O)Nc1ccc(Cl)cc1 | 66.7 µM (inactive) | > 100 µM (inactive) | > 100 µM (inactive) | > 100 µM (inactive) | > 100 µM (inactive) | > 100 µM (inactive) | > 100 µM (inactive) | > 100 µM (inactive) | > 100 µM (inactive) | > 100 µM (inactive) | > 100 µM (inactive) | > 100 µM (inactive) | > 100 µM (inactive) | > 100 µM (inactive) | > 100 µM (inactive) | > 100 µM (inactive) | – | > 100 µM (inactive) | > 100 µM (inactive) |
